± gives the standard deviation of the averaged measurements.
Columns and labels:
Assay in all cases: level (log10 ratio to DMSO vehicle control); higher = higher biomarker level / cell amount than vehicle control
[1] = compound: FC(F)(F)C(F)(F)C(F)(F)C(F)(F)CCI [1H,1H,2H,2H-Perfluorohexyl iodide]; conditions: in DMSO
Procedure: (§1)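 BioMAP Diversity Plus panel of 12 human primary cell co-culture systems (3C, 4H, LPS, SAg, BT, BF4T, BE3C, CASM3C, HDF3CGF, KF3CT, MyoF, Mphg). Compounds were added 1 h before stimulation and left for 24 h (MyoF 48 h; BT 72 h for soluble read-outs or 6 d for IgG). Biomarkers were read by ELISA, cytotoxicity by SRB, PBMC viability and proliferation by Alamar Blue. Each well value was divided by the mean of 8 DMSO control wells on the same plate and log10 transformed; duplicate blinded samples were tested at 4 concentrations.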

[2] = compound: C=CC(=O)OCC(F)(F)C(F)(F)C(F)(F)C(F)(F)COC(=O)C=C [1H,1H,6H,6H-Perfluorohexane-1,6-diol diacrylate]; conditions: 6700 nM; in DMSO
Procedure: as §1

[3] = compound: O=C(O)C(F)(F)C(F)(F)C(F)(F)C(F)(F)C(F)(F)C(F)(F)C(F)(F)F [Ammonium perfluorooctanoate]; conditions: in DMSO
Procedure: as §1

[4] = compound: OCCCCC(F)(F)C(F)(F)C(F)(F)C(F)(F)F [4:4 Fluorotelomer alcohol]; conditions: in DMSO
Procedure: as §1

[5] = compound: O=P(O)(O)CCC(F)(F)C(F)(F)C(F)(F)C(F)(F)C(F)(F)C(F)(F)F [2-(Perfluorohexyl)ethylphosphonic acid]; conditions: in DMSO
Procedure: as §1

[6] = compound: OCC(F)(F)C(F)(F)C(F)(F)C(F)(F)C(F)(F)C(F)(F)C(F)(F)C(F)(F)C(F)(F)C(F)(F)C(F)(F)F [11:1 Fluorotelomer alcohol]; conditions: in DMSO
Procedure: as §1

[7] = compound: C=CC(=O)OCC(F)(F)C(F)(F)C(F)(F)C(F)(F)C(F)(F)C(F)(F)C(F)(F)C(F)F [1H,1H,9H-Perfluorononyl acrylate]; conditions: in DMSO
Procedure: as §1

Test System | level (log10) ([1]; 6700 nM) | level (log10) ([1]; 20000 nM) | level (log10) ([1]; 60000 nM) | level (log10) [2] | level (log10) ([3]; 6700 nM) | level (log10) ([3]; 20000 nM) | level (log10) ([3]; 60000 nM) | level (log10) ([4]; 6700 nM) | level (log10) ([4]; 20000 nM) | level (log10) ([4]; 60000 nM) | level (log10) ([5]; 6700 nM) | level (log10) ([5]; 20000 nM) | level (log10) ([5]; 60000 nM) | level (log10) ([6]; 1100 nM) | level (log10) ([6]; 3300 nM) | level (log10) ([6]; 10000 nM) | level (log10) ([7]; 6700 nM) | level (log10) ([7]; 20000 nM) | level (log10) ([7]; 60000 nM)
lMphg:CD106/VCAM-1 | 0.0015 ± 0.018 | -0.0005 ± 0.016 | 0.009 ± 0.013 | -0.0445 ± 0.018 | 0.0135 ± 0.0035 | 0.023 ± 0.0014 | -0.0105 ± 0.0021 | -0.0195 ± 0.005 | -0.0045 ± 0.019 | -0.0025 ± 0.042 | -0.001 ± 0.0028 | 0.006 ± 0.016 | -0.002 ± 0.038 | 0.0045 ± 0.005 | -0.001 ± 0.0014 | -0.0015 ± 0.0035 | -0.03 | -0.029 ± 0.0099 | -0.0405 ± 0.0092
CASM3C:CD141/Thrombomodulin | -0.0085 ± 0.021 | -0.009 ± 0.014 | 0.0275 ± 0.049 | 0.0295 ± 0.016 | 0.014 ± 0.035 | 0.0205 ± 0.036 | 0.0465 ± 0.032 | -0.0065 ± 0.012 | -0.0065 ± 0.0078 | 0.0145 ± 0.032 | 0.027 ± 0.017 | 0.0185 ± 0.011 | 0.016 ± 0.0042 | -0.0155 ± 0.012 | -0.012 ± 0.025 | -0.0155 ± 0.005 | -0.014 ± 0.069 | -0.0095 ± 0.0078 | -0.0175 ± 0.033
CASM3C:SRB | 0 ± 0.014 | -0.0005 ± 0.0092 | -0.005 ± 0.033 | 0 ± 0.0014 | -0.0015 ± 0.00071 | -0.001 ± 0.0099 | -0.0005 ± 0.00071 | -0.0045 ± 0.00071 | 0.0015 ± 0.012 | -0.0025 ± 0.016 | -0.0005 ± 0.0035 | -0.012 ± 0.017 | -0.016 ± 0.02 | 0.0075 ± 0.005 | 0.0095 ± 0.0064 | 0.008 ± 0.0071 | 0.0075 ± 0.015 | 0.005 ± 0.0014 | -0.001 ± 0.014
lMphg:CD62E/E-Selectin | -0.021 ± 0.0071 | -0.0105 ± 0.026 | 0.0315 ± 0.0064 | -0.044 ± 0.021 | -0.0205 ± 0.0021 | -0.003 ± 0.058 | 0.0025 ± 0.022 | -0.0275 ± 0.018 | -0.012 ± 0.018 | -0.0195 ± 0.04 | -0.015 ± 0.013 | -0.017 ± 0.0042 | 0.075 ± 0.0085 | 0.0715 ± 0.011 | 0.084 ± 0.024 | 0.118 ± 0.012 | 0 ± 0.0099 | -0.004 ± 0.02 | -0.01 ± 0.017
KF3CT:PAI-I | -0.0025 ± 0.023 | -0.001 ± 0.013 | -0.0225 ± 0.015 | 0.048 ± 0.0071 | -0.0015 ± 0.0021 | -0.018 ± 0.0099 | -0.01 ± 0.0099 | -0.012 ± 0.017 | -0.0075 ± 0.013 | -0.009 ± 0.013 | -0.033 ± 0.037 | -0.0505 ± 0.028 | -0.039 ± 0.025 | -0.002 ± 0.0071 | -0.0055 ± 0.012 | 0.001 ± 0.023 | -0.017 | -0.023 ± 0.042 | -0.0465 ± 0.022
HDF3CGF:CXCL10/IP-10 | 0.0045 ± 0.035 | -0.0155 ± 0.0064 | -0.069 ± 0.02 | -0.492 ± 0.023 | -0.015 ± 0.0042 | -0.023 ± 0.016 | -0.0495 ± 0.04 | 0.0065 ± 0.0092 | 0.0155 ± 0.013 | 0.0105 ± 0.016 | 0.014 ± 0.0028 | 0.0505 ± 0.0078 | 0.0525 ± 0.037 | -0.0435 ± 0.015 | -0.0725 ± 0.0064 | -0.039 ± 0.02 | -0.0105 ± 0.0064 | -0.041 ± 0.048 | -0.15 ± 0.096
HDF3CGF:PAI-I | 0.002 ± 0.028 | 0.0045 ± 0.0035 | -0.0105 ± 0.044 | -0.074 ± 0.016 | 0.0885 ± 0.03 | 0.0995 ± 0.044 | 0.017 ± 0.044 | -0.0015 ± 0.012 | 0.0075 ± 0.03 | 0.0075 ± 0.054 | -0.027 ± 0.023 | -0.027 ± 0.0014 | -0.0925 ± 0.021 | 0.037 ± 0.0014 | 0.0515 ± 0.012 | 0.029 ± 0.075 | 0.0785 ± 0.076 | 0.025 ± 0.04 | 0.0165 ± 0.1
KF3CT:CD54/ICAM-1 | -0.0045 ± 0.025 | 0.016 ± 0.016 | -0.005 ± 0.027 | -0.076 ± 0.0028 | 0.004 ± 0.016 | -0.0165 ± 0.018 | -0.03 ± 0.023 | 0.0095 ± 0.019 | -0.0025 ± 0.018 | 0.005 ± 0.024 | -0.0015 ± 0.011 | 0.006 ± 0.028 | 0.02 ± 0.02 | -0.014 ± 0.0071 | -0.0295 ± 0.0021 | -0.0045 ± 0.012 | -0.0185 ± 0.005 | -0.0245 ± 0.0078 | -0.048 ± 0.0085
HDF3CGF:CXCL9/MIG | 0.0105 ± 0.028 | 0.007 ± 0.0085 | -0.096 ± 0.016 | -1.14 ± 0.041 | -0.0195 ± 0.0092 | -0.0085 ± 0.025 | -0.0915 ± 0.047 | -0.0045 ± 0.0092 | 0.0035 ± 0.0092 | 0.006 ± 0.02 | -0.003 ± 0.0099 | 0.008 ± 0.017 | -0.006 ± 0.0057 | 0.009 | -0.0145 ± 0.00071 | 0.009 ± 0.05 | -0.0315 ± 0.025 | -0.083 ± 0.025 | -0.215 ± 0.071
HDF3CGF:CXCL8/IL-8 | 0.003 ± 0.0057 | -0.0025 ± 0.0035 | 0.0015 ± 0.011 | -0.021 ± 0.0057 | -0.0025 ± 0.005 | 0.002 ± 0.0042 | 0.003 | -0.0065 ± 0.0035 | 0.01 ± 0.0071 | 0.01 ± 0.0014 | -0.005 ± 0.0042 | -0.0125 ± 0.00071 | 0.012 ± 0.0071 | -0.002 ± 0.0057 | -0.007 | -0.001 | -0.009 ± 0.0042 | 0.0075 ± 0.021 | 0.0085 ± 0.0035
HDF3CGF:CXCL11/I-TAC | 0.006 ± 0.011 | -0.0165 ± 0.012 | -0.0835 ± 0.00071 | -0.574 ± 0.078 | 0.014 ± 0.0014 | 0.037 ± 0.02 | 0.0555 ± 0.033 | 0.0075 ± 0.0078 | 0.0205 ± 0.0092 | -0.001 ± 0.014 | -0.005 | 0.0325 ± 0.0021 | 0.0425 ± 0.021 | -0.0245 ± 0.03 | -0.0655 ± 0.005 | -0.0155 ± 0.04 | -0.014 ± 0.0014 | -0.066 ± 0.033 | -0.214 ± 0.11
CASM3C:Serum Amyloid A | -0.017 ± 0.0042 | -0.0155 ± 0.039 | 0.0305 ± 0.1 | -0.0575 ± 0.0078 | 0.0345 ± 0.022 | 0.015 ± 0.0057 | 0.0345 ± 0.012 | -0.0055 ± 0.025 | -0.01 ± 0.047 | 0.0295 ± 0.063 | 0.004 ± 0.023 | -0.0045 ± 0.0035 | 0.0235 ± 0.0092 | -0.0025 ± 0.044 | -0.0045 ± 0.0078 | 0.0045 ± 0.016 | -0.014 ± 0.014 | -0.0825 ± 0.071 | -0.067 ± 0.0071
CASM3C:HLA-DR | -0.012 ± 0.0085 | -0.017 ± 0.02 | 0.0265 ± 0.081 | -0.008 ± 0.12 | 0.0085 ± 0.012 | -0.0055 ± 0.0021 | 0.0015 ± 0.023 | -0.0045 ± 0.019 | -0.015 ± 0.0042 | 0.019 ± 0.027 | 0.0045 ± 0.015 | 0.015 ± 0.023 | 0.0345 ± 0.046 | 0.0075 ± 0.016 | 0.0015 ± 0.00071 | 0.0095 ± 0.0035 | -0.0945 ± 0.044 | -0.04 ± 0.071 | 0.021 ± 0.033
